PubChem BioAssay AID248 (DTP/NCI, 2004)
“And” between values parts separate entries of the source, which are not always exact repeats. Equal values may be shown once. Inconclusive results and toxic doses are left out. Rule as the data show it: active = T/C of 150% or more; inactive = T/C below 125%.

Test system: L1210 leukemia ip in BDF1 mice, survival T/C
Assay: NCI In Vivo Anticancer Drug Screen. Data for tumor model L1210 Leukemia (intraperitoneal) in B6D2F1 (BDF1) mice
Conditions: endpoint: mean survival time, higher = longer survival
Method in brief: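 Tumor cells were implanted, animals were treated, and survival was followed. The result divides the treated measurement by the vehicle-control measurement.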

[1] = dose: 100.0 mg/kg/injection, schedule: Q01DX009 (ip), vehicle: saline with Tween-80
[2] = dose: 100.0 mg/kg/injection, schedule: Q01DX001 (ip), vehicle: saline
[3] = dose: 200.0 mg/kg/injection, schedule: Q01DX001 (ip), vehicle: saline

Measured: T/C

Cc1oc2ccc(NS(=O)(=O)c3ccccc3)cc2c1C(=O)O
inactive: dose: 25.0 mg/kg/injection, schedule: Q01DX009 (ip), vehicle: saline with Tween-80 101 % of control | dose: 50.0 mg/kg/injection, schedule: Q01DX009 (ip), vehicle: saline with Tween-80 107 % of control | [1] 101 % of control

CCOc1ccc(NC(=O)OCCN2CCN(CCc3ccccc3)C(C)C2)cc1 (centres undefined)
inactive: [2] 98 % of control | [3] 95 % of control

O=C(O)CN1C(=O)NC(C2CC2)(C2CC2)C1=O
inactive: dose: 100.0 mg/kg/injection, schedule: Q04DX003 (ip), vehicle: acetone 100 % of control | dose: 200.0 mg/kg/injection, schedule: Q04DX003 (ip), vehicle: acetone 96 % of control | dose: 400.0 mg/kg/injection, schedule: Q04DX003 (ip), vehicle: acetone 100 % of control

CNCCN(C)Cc1ccccc1
inactive: dose: 25.0 mg/kg/injection, schedule: Q01DX009 (ip), vehicle: saline 101 % of control | dose: 25.0 mg/kg/injection, schedule: Q04DX003 (ip), vehicle: saline 106 % of control | dose: 50.0 mg/kg/injection, schedule: Q01DX009 (ip), vehicle: saline 97 % of control | dose: 50.0 mg/kg/injection, schedule: Q04DX003 (ip), vehicle: saline 98 % of control | dose: 100.0 mg/kg/injection, schedule: Q01DX009 (ip), vehicle: saline 98 % of control | dose: 100.0 mg/kg/injection, schedule: Q04DX003 (ip), vehicle: saline 98 % of control and 91 % of control

NC(N)=N/N=C/c1ccc(C(=O)O)cc1
inactive: dose: 15.0 mg/kg/injection, schedule: Q01DX Z (ip), vehicle: saline 103 % of control | dose: 30.0 mg/kg/injection, schedule: Q01DX Z (ip), vehicle: saline 104 % of control | dose: 60.0 mg/kg/injection, schedule: Q01DX Z (ip), vehicle: saline 106 % of control | dose: 120.0 mg/kg/injection, schedule: Q01DX Z (ip), vehicle: saline 110 % of control | dose: 120.0 mg/kg/injection, schedule: Q01DX Z (oral), vehicle: saline 92 % of control | dose: 240.0 mg/kg/injection, schedule: Q01DX Z (ip), vehicle: saline 87 % of control | dose: 240.0 mg/kg/injection, schedule: Q01DX Z (oral), vehicle: saline 90 % of control | dose: 480.0 mg/kg/injection, schedule: Q01DX Z (oral), vehicle: saline 101 % of control | dose: 960.0 mg/kg/injection, schedule: Q01DX Z (oral), vehicle: saline 92 % of control

O=C(Nc1ccc2c(c1)Cc1cc(Br)ccc1-2)C(F)(F)F
inactive: [1] 97 % of control | dose: 200.0 mg/kg/injection, schedule: Q01DX009 (ip), vehicle: saline with Tween-80 92 % of control | dose: 400.0 mg/kg/injection, schedule: Q01DX009 (ip), vehicle: saline with Tween-80 94 % of control

CC(Cc1ccccc1)N(C)CC1C(=O)C2CCC1C2 (centres undefined)
inactive: dose: 75.0 mg/kg/injection, schedule: Q01DX001 (ip), vehicle: carboxymethylcellulose (CMC) 102 % of control | dose: 150.0 mg/kg/injection, schedule: Q01DX001 (ip), vehicle: carboxymethylcellulose (CMC) 96 % of control | dose: 300.0 mg/kg/injection, schedule: Q01DX001 (ip), vehicle: carboxymethylcellulose (CMC) 96 % of control

Cc1c(C)c2c(c(C)c1O)CCC(C)(C)O2
inactive: dose: 50.0 mg/kg/injection, schedule: Q01DX009 (ip), vehicle: Klucel (hydroxypropylcellulose) (HPC) 97 % of control | dose: 100.0 mg/kg/injection, schedule: Q01DX009 (ip), vehicle: Klucel (hydroxypropylcellulose) (HPC) 100 % of control | dose: 200.0 mg/kg/injection, schedule: Q01DX009 (ip), vehicle: Klucel (hydroxypropylcellulose) (HPC) 103 % of control

CC(C)CN1CCCC(=O)C(O)CCC1 (centres undefined)
inactive: dose: 100.0 mg/kg/injection, schedule: Q01DX001 (ip), vehicle: acetone 101 % of control

Cc1cc(NS(=O)(=O)c2ccc(N=Nc3c(N)[nH]c(=O)[nH]c3=O)cc2)nc(C)n1
inactive: [2] 115 % of control | [3] 96 % of control | dose: 400.0 mg/kg/injection, schedule: Q01DX001 (ip), vehicle: saline 93 % of control

CCOC(=O)c1cc(=O)[nH]c2ccc(OC)cc12
inactive: dose: 100.0 mg/kg/injection, schedule: Q04DX003 (ip), vehicle: saline with Tween-80 98 % of control | dose: 200.0 mg/kg/injection, schedule: Q04DX003 (ip), vehicle: saline with Tween-80 102 % of control | dose: 400.0 mg/kg/injection, schedule: Q04DX003 (ip), vehicle: saline with Tween-80 91 % of control
